Experimental data reported in patent US20030236306A1, “Stabilized formulations of alpha adrenergic receptor antagonists and the uses thereof” (priority 2002, published 2003).

Assays:
[1] = Narrow-range pH-stability profiling at 60° C.; assay type: physicochemical
Description: (§1) The drug is monitored at a detection wavelength of 232 nm.
All samples were stored in the dark.
The phosphate buffers were prepared as previously described. […] Measurement of sample pH was done after HPLC analysis.
In order to precisely define the most favorable pH, a stronger stressing condition was needed to generate a greater extent of degradation in the lower pH region. For this study, the incubation condition was shifted from 40° C. to 60° C. […] Since the extent of degradation after fourteen (14) days was still less than twenty percent (20%) in most samples, zero-order rate kinetics was used for the degradation curves (concentration versus time). The calculated rate constant was plotted against pH to provide the narrow-range pH-stability profile.

[2] = Effect of buffer anion on stability, pH 3, 60° C.; assay type: physicochemical
Description: as §1
Tightly sealed glass vials containing the test solutions were placed in an oven at 40° C. or 60° C. All samples were stored in the dark. Aliquots were removed at designated time points for HPLC analysis and pH measurement.
The test buffers included 50 mM sodium phosphate, 50 mM sodium acetate, 50 mM sodium lactate, 50 mM sodium citrate, and 50 mM sodium succinate buffers at pH 3.
The phosphate and acetate buffers were prepared as described above. The citrate buffer was prepared by adding 9.60 g of citric acid to water, adjusting the pH with 2 N NaOH to pH 3, and bringing the volume to 1 L in a volumetric flask. The lactate buffer was prepared by adding 2.25 g of lactic acid to water, adjusting the pH with 2 N NaOH to pH 3, and bringing the volume to 1L in a volumetric flask. The succinate buffer was prepared by adding 2.95 g succinic acid to water, adjusting the pH with 2 N NaOH to pH 3, and bringing the volume to 1 L in a volumetric flask.
Measurements of sample pH were done after HPLC analysis.

[3] = test system: anesthesia by lignocaine admixed with epinephrine; conditions: 0.5-1.5 mg, Example 1, Table 1 of the '714 patent; cited from earlier work
[4] = Sodium Phosphate Buffer pH 2.0, 60° C., Day 0
[5] = Sodium Phosphate Buffer pH 2.0, 60° C., Day 2
[6] = Sodium Phosphate Buffer pH 2.0, 60° C., Day 7
[7] = Sodium Phosphate Buffer pH 2.0, 60° C., Day 14
[8] = Sodium Phosphate Buffer pH 2.5, 60° C., Day 0
[9] = Sodium Phosphate Buffer pH 2.5, 60° C., Day 2
[10] = Sodium Phosphate Buffer pH 2.5, 60° C., Day 7
[11] = Sodium Phosphate Buffer pH 2.5, 60° C., Day 14
[12] = Sodium Phosphate Buffer pH 3.0, 60° C., Day 0
[13] = Sodium Phosphate Buffer pH 3.0, 60° C., Day 2
[14] = Sodium Phosphate Buffer pH 3.0, 60° C., Day 7
[15] = Sodium Phosphate Buffer pH 3.0, 60° C., Day 14
[16] = Sodium Phosphate Buffer pH 3.4, 60° C., Day 0
[17] = Sodium Phosphate Buffer pH 3.4, 60° C., Day 2
[18] = Sodium Phosphate Buffer pH 3.4, 60° C., Day 7
[19] = Sodium Phosphate Buffer pH 3.4, 60° C., Day 14
[20] = Sodium Phosphate Buffer pH 4.0, 60° C., Day 0
[21] = Sodium Phosphate Buffer pH 4.0, 60° C., Day 2
[22] = Sodium Phosphate Buffer pH 4.0, 60° C., Day 7
[23] = Sodium Phosphate Buffer pH 4.0, 60° C., Day 14
[24] = 50 mM Acetate (sodium salt) pH 3.0, 60° C., Day 0
[25] = 50 mM Acetate (sodium salt) pH 3.0, 60° C., Day 2
[26] = 50 mM Acetate (sodium salt) pH 3.0, 60° C., Day 7
[27] = 50 mM Acetate (sodium salt) pH 3.0, 60° C., Day 14
[28] = 50 mM Phosphate (sodium salt) pH 3.0, 60° C., Day 0
[29] = 50 mM Phosphate (sodium salt) pH 3.0, 60° C., Day 2
[30] = 50 mM Phosphate (sodium salt) pH 3.0, 60° C., Day 7
[31] = 50 mM Phosphate (sodium salt) pH 3.0, 60° C., Day 14

pH at which most stable ([1]; 50 mM sodium phosphate, 60° C., FIG. 2): 3.5
Phentolamine Concentration [1, 4]: 98 µg/mL
Phentolamine Purity [1, 4]: 100 % peak area
Phentolamine Concentration [1, 5]: 98 µg/mL
Phentolamine Purity [1, 5]: 99 % peak area
Phentolamine Concentration [1, 6]: 93 µg/mL
Phentolamine Purity [1, 6]: 96 % peak area
Phentolamine Concentration [1, 7]: 81 µg/mL
Phentolamine Purity [1, 7]: 92 % peak area
Phentolamine Concentration [1, 8]: 99 µg/mL
Phentolamine Purity [1, 8]: 99 % peak area
Phentolamine Concentration [1, 9]: 96 µg/mL
Phentolamine Purity [1, 9]: 97 % peak area
Phentolamine Concentration [1, 10]: 78 µg/mL
Phentolamine Purity [1, 10]: 92 % peak area
Phentolamine Concentration [1, 11]: 79 µg/mL
Phentolamine Purity [1, 11]: 86 % peak area
Phentolamine Concentration [1, 12]: 96 µg/mL
Phentolamine Purity [1, 12]: 99 % peak area
Phentolamine Concentration [1, 13]: 93 µg/mL
Phentolamine Purity [1, 13]: 97 % peak area
Phentolamine Concentration [1, 14]: 91 µg/mL
Phentolamine Purity [1, 14]: 95 % peak area
Phentolamine Concentration [1, 15]: 84 µg/mL
Phentolamine Purity [1, 15]: 91 % peak area
Phentolamine Concentration [1, 16]: 97 µg/mL
Phentolamine Purity [1, 16]: 99 % peak area
Phentolamine Concentration [1, 17]: 95 µg/mL
Phentolamine Purity [1, 17]: 98 % peak area
Phentolamine Concentration [1, 18]: 96 µg/mL
Phentolamine Purity [1, 18]: 97 % peak area
Phentolamine Concentration [1, 19]: 91 µg/mL
Phentolamine Purity [1, 19]: 94 % peak area
Phentolamine Concentration [1, 20]: 97 µg/mL
Phentolamine Purity [1, 20]: 99 % peak area
Phentolamine Concentration [1, 21]: 95 µg/mL
Phentolamine Purity [1, 21]: 98 % peak area
Phentolamine Concentration [1, 22]: 94 µg/mL
Phentolamine Purity [1, 22]: 97 % peak area
Phentolamine Concentration [1, 23]: 89 µg/mL
Phentolamine Purity [1, 23]: 96 % peak area
Phentolamine Concentration [2, 24]: 96 µg/mL
Phentolamine Purity [2, 24]: 100 % peak area
Phentolamine Concentration [2, 25]: 95 µg/mL
Phentolamine Purity [2, 25]: 98 % peak area
Phentolamine Concentration [2, 26]: 94 µg/mL
Phentolamine Purity [2, 26]: 97 % peak area
Phentolamine Concentration [2, 27]: 89 µg/mL
Phentolamine Purity [2, 27]: 96 % peak area
Phentolamine Concentration ([2]; 50 mM Citrate (sodium salt) pH 3.0, 60° C., Day 0): 93 µg/mL
Phentolamine Concentration ([2]; 50 mM Citrate (sodium salt) pH 3.0, 60° C., Day 2): 87 µg/mL
Phentolamine Concentration ([2]; 50 mM Citrate (sodium salt) pH 3.0, 60° C., Day 7): 73 µg/mL
Phentolamine Concentration ([2]; 50 mM Citrate (sodium salt) pH 3.0, 60° C., Day 14): 62 µg/mL
Phentolamine Concentration ([2]; 50 mM Lactate (sodium salt) pH 3.0, 60° C., Day 0): 97 µg/mL
Phentolamine Concentration ([2]; 50 mM Lactate (sodium salt) pH 3.0, 60° C., Day 2): 94 µg/mL
Phentolamine Concentration ([2]; 50 mM Lactate (sodium salt) pH 3.0, 60° C., Day 7): 91 µg/mL
Phentolamine Concentration ([2]; 50 mM Lactate (sodium salt) pH 3.0, 60° C., Day 14): 83 µg/mL
Phentolamine Concentration [2, 28]: 96 µg/mL
Phentolamine Purity [2, 28]: 99 % peak area
Phentolamine Concentration [2, 29]: 93 µg/mL
Phentolamine Purity [2, 29]: 97 % peak area
Phentolamine Concentration [2, 30]: 91 µg/mL
Phentolamine Purity [2, 30]: 95 % peak area
Phentolamine Concentration [2, 31]: 84 µg/mL
Phentolamine Purity [2, 31]: 91 % peak area
Phentolamine Concentration ([2]; 50 mM Succinate (sodium salt) pH 3.0, 60° C., Day 0): 96 µg/mL
Phentolamine Concentration ([2]; 50 mM Succinate (sodium salt) pH 3.0, 60° C., Day 2): 88 µg/mL
Phentolamine Concentration ([2]; 50 mM Succinate (sodium salt) pH 3.0, 60° C., Day 7): 74 µg/mL
Phentolamine Concentration ([2]; 50 mM Succinate (sodium salt) pH 3.0, 60° C., Day 14): 64 µg/mL
SMILES: Cc1ccc(N(CC2=NCCN2)c2cccc(O)c2)cc1 [Phentolamine, phentolamine]
rank of buffer preference based on amount of phentolamine recovered at the end of the study ([2]; pH 3, 60° C., 14 days): sodium acetate>no buffer (water with pH adjusted to pH 3)>sodium phosphate>sodium lactate>sodium succinate>sodium citrate
duration of anesthesia [3]: reduction in the duration of anesthesia with increasing amounts
